Values of other authors in US6399115B2, “Method and composition for the treatment of benign prostate hypertrophy (BPH) and prevention of prostate cancer” (priority 1999, dated 2002).

How the values were obtained:
[1] = among the major carotenoids
5 alpha-reductase = details: human prostatic tissue
plasma testosterone = details: in vivo

CC(C)=CCC/C(C)=C/C=C/C(C)=C/C=C/C(C)=C/C=C/C=C(C)/C=C/C=C(C)/C=C/C=C(\C)CCC=C(C)C [lycopene]
quenching free oxygen radicals [1]: most effective and significant

[Zn] [Zinc]
relationship with 5 alpha-reductase activity (5 alpha-reductase): inverse relationship

[Cu] [Copper]
levels of plasma testosterone (plasma testosterone): reduce
